Assay results reported in patent publication US6703398B2, “Orally administered analgesic compositions containing nalbuphine” (priority 2001, dated 2004).

Tests used:
[1] = Pharmacokinetics of nalbuphine in beagles after oral administration of SDN compositions; settings: 30 mg/kg of SDN; for AUC/Dose: nalbuphine in plasma, 30 mg/kg
Method: To assess the effects of various pharmaceutical compositions of the present invention on beagles. The compositions were orally administered into beagles, and the concentration of nalbuphine in vivo was monitored in the animals as follows:
2, In each study group, the pharmaceutical composition that contained 30 mg/kg of SDN were orally given to beagles.
4. The blood samples were analyzed by high performance liquid chromatography (HPLC) to determine the pharmacokinetics (including the half-life and bioavailability of nalbuphine) in vivo.

[2] = Efficacy and bioavailability study of nalbuphine ester prodrugs as orally administered compositions; format: in vivo, animals and humans; settings: oral composition with oily substance, effect of adding the solubility-assisting agent; comparison among active ingredients
Excerpt: Each and every one of these nalbuphine and/or nalbuphine ester prodrugs as listed above has been tested for suitability as an orally administered pharmaceutical composition for use in animals and humans. The efficacy and bioavailability of these nalbuphine ester prodrugs have been studied.

[3] = literature; cited from earlier work

Compound | concentration of nalbuphine in plasma 1-3 hours after the oral uptake of SDN ([1]; FIG. 1, comparison among groups) | concentration of nalbuphine in plasma after the peak ([1]; FIG. 1, later time points) | Bioavailability ([1]; bioavailability of nalbuphine, means ± S.E.) | Nalbuphine Half-Life ([1]; nalbuphine in plasma by HPLC, means ± S.E.) | AUC/Dose ([1]; means ± S.E.) | AUC/Dose ([1]; means ± S.E., listed as SDN Powder Group) | bioavailability and half-life of nalbuphine in blood [2] | bioavailability through oral administration [3]
O=C(CCCCCCCCC(=O)Oc1ccc2c3c1O[C@H]1[C@@H](O)CC[C@@]4(O)[C@@H](C2)N(CC2CCC2)CC[C@]314)Oc1ccc2c3c1O[C@H]1[C@@H](O)CC[C@@]4(O)[C@@H](C2)N(CC2CCC2)CC[C@]314 [SDN Powder, sebacoyl dinalbuphine ester] | much less than the other two groups | decreased substantially | 14.6% | 8.1 ± 1.6 h | 39 ± 11 ng·kg·h/mL/mg | 39 ng·kg·h/mL/mg | the best in terms of longer half-life and greater bioavailability rate | –
nalbuphine hydrochloride [nalbuphine-HCl] | – | – | – | – | – | – | – | less than 5%
